One data set has as its system human liver microsomes. It counts as in vitro ADME. Here is the method: Livers were obtained from organ donors according to procedures is approved by the University of Queensland ethics committees. Samples of human liver were frozen in liquid nitrogen and stored at −70° C. prior to use. Microsomes were prepared according to the method of Guengerich except that microsomes were subjected to a final wash in 10 mM Tris-acetate, 1 mM EDTA and 20% glycerol pH 7.4 (resuspension buffer) to remove residual drugs (e.g. phenytoin—data not shown) present in donor livers.
Incubations (0.5 mL) with tissue fractions contained either the microsomal fraction at […] or the cytosolic fraction at 5 mg/mL protein in 100 mM potassium phosphate (pH 7.4) supplemented with is substrates (synthetic alkylamides 6, 11, 3 and 12 or the alkylamide fraction from the ethanolic liquid as required—see Figure legends for concentrations used) added from ethanolic stocks. Final ethanol concentrations were either 0.70% or 0.96% and were consistent in each assay. Reactions were initiated by the addition of an NADPH-generating system consisting of (final concentrations) […] NADP+, 10 mM glucose-6-phosphate and 0.5 μ/mL glucose-6-phosphate dehydrogenase. Negative controls and cytosolic incubations lacked an NADPH-generating system. Reaction mixtures were incubated at 37° C. with gentle agitation for the duration of each experiment. Reactions were terminated by addition of an equal volume of 100% methanol to a sample aliquot. Diluted samples were then centrifuged at 16000×g for 2 minutes and supernatants stored at −20° C. until analysis by LCMS.
Alkylamide concentrations in samples were determined by LCMS using a gradient HPLC system (Shimadzu LC1OAT) coupled to a quadrupole mass spectrometer (Shimadzu, QP8000a) operating in positive SIM mode with an APCI interface. The mobile phases were a mixture of water and acetonitrile. Alkylamides 6 and 3 were detected using a 65% acetonitrile isocratic run. Alkylamides 11 and 12 were detected using an 85% acetonitrile isocratic run. The alkylamide fraction was analysed using a gradient that increased from 20% to 40% acetonitrile over the first 5 minutes, then to 80% acetonitrile over the following 15 minutes and to 100% over the next 3 minutes followed by a re-equilibration period at 20% acetonitrile prior to the next injection. A similar gradient was used in scan and then SIM (M+1 of 248, 264, 246, 192, 280 and 282) modes to identify metabolites of 3. A C18, 3 m, 100×2.00 mm Phenomenex Luna column was used with a solvent flow rate of 0.3 mL/minute. All alkylamides were linear in the range 0.001-10 mg/mL (R^2>0.9) with a coefficient of variation between 4 and 5.
A number of pure, synthetic alkylamides (6, 11 3 and 12 as shown in FIG. 1) as well as the complex mixture of alkylamides obtained from an ethanolic extract of Echinacea were investigated for their susceptibility to liver P450-mediated degradation in microsomal preparations from four different subjects. The concentration of each substrate remaining at the given time points was quantified with LCMS and rates of substrate depletion were calculated as a percentage of the original concentration. […] From FIG. 3 it can be seen that there was a clear difference in the ability of the liver microsomal P450s to metabolise the synthetic 2-ene and the 2,4-diene alkylamides. […] In contrast, the 2,4-dienes were rapidly metabolised with only 9±2% of the original concentration of 3 and 2±1% of the original concentration of 12 detected after 2 hours. […]

The next data set relates to TNF-α. In words: TNF-α production under LPS stimulated conditions in macrophages. It counts as cell-based, mouse. The following applies: RAW 264.7 macrophages. The text has this: Macrophages play an essential role in the development of specific and non-specific immune responses. Upon activation by a variety of stimuli macrophages release a number of products having biological activity. Such products include cytokines, such as TNF-α, […] and nitric oxide (NO). Macrophages undergo a process of cellular “activation” which is associated with morphological, functional, and biochemical changes in the cells in response to inflammatory signals or antigens. One prominent characteristic of activated macrophages is their increased capacity to release pro-inflammatory and cytotoxic mediators, which help aid in the resolution of infection or inflammation. As a prelude to macrophage activation LPS must bind to a receptor on the macrophage cell surface. Several LPS receptors have been identified in different macrophages with the most thoroughly studied receptor being the CD14 receptor.
The synthetic alkylamides correspond to the major 2-ene and 2,4-diene alkylamides found in Echinacea. These alkylamides are illustrated in FIG. 1 as compounds 6 and 3 respectively.

The next data set deals with phagocytosis. The following applies: in vitro and in vivo; cited from earlier work.

The values that follow come from patent publication US9205121B2, “Echinacea formulation” (Integria Healthcare (Australia) PTY LTD, priority 2004, dated 2015).

Molecules are shown by their SMILES.

Turning to `C#CC#CCCCC/C=C/C(=O)NCC(C)C` [alkylamide 6, (2E)-N-isobutylundeca-2-ene-8,10-diynamide], in the data set on human liver microsomes (human, 2 h, pH 7.4), the “% of initial levels still present” value turned out to be 91±24%.

In the case of `CC#CC#CCCCC/C=C/C(=O)NCC(C)C` [alkylamide 11, (2E)-N-isobutyldodeca-2-ene-8,10-diynamide], the “rate of alkylamide metabolism relative to the rate found for 6” value with human liver microsomes is listed as “two fold higher”.

With `CCCCCCC/C=C/C=C/C(=O)NCC(C)C` [alkylamide 12, (2E-4E)-N-isobutyldodea-2,4-dienamide], in the data set on human liver microsomes, the “rate of alkylamide metabolism relative to the rate found for 6” value is given as “ten fold higher”.

In the case of `O=C(/C=C/c1ccc(O)c(O)c1)O[C@@H](C(=O)O)[C@@H](OC(=O)/C=C/c1ccc(O)c(O)c1)C(=O)O` [cichoric acid], the “TNF-α production under LPS stimulated conditions” value in the data set with TNF-α is listed as “significantly decreased”. In addition, the stimulation of phagocytosis result in the data set on phagocytosis is recorded as “marked stimulation”.
